Measured values: patent US20140161827A1, “COMPOSITIONS AND METHODS FOR TREATING CANCER” (University of Virginia Patent Foundation, priority 2011, published 2014)
Where a SMILES comes first, the peptide text is derived from it. The star is where a group is joined. Cbz = O=C(OCc1ccccc1)*; CH2F = FC*

Assays:
[1] = test system: LTED cells; experiment: Levels of apoptotic proteins in treated LTED cells (immunoblot of cytosolic and mitochondrial fractions, immunoprecipitation); type: cell-based, human; conditions: for Mcl-1 level: FTS 75 μM 0-48 h (by 24 h) or estradiol 0-48 h; for Bim level (BimEL, BimL): FTS 75 μM 0-48 h or estradiol 0-48 h (early time points 4, 8 h); for Survivin level: FTS 75 μM (from 8 to 16 h, undetectable at 24 and 48 h) or estradiol; for Phospho JNK level: FTS 75 μM over 48 hours or estradiol; for Cytochrome c level in the cytosol / Smac (Smac/Diablo) level in the cytosol: FTS at 24 and 48 h, estradiol by 48 h
Protocol: The inventors herein initially examined the class of proteins which influences MOMP (mitochondrial outer membrane pore) formation, a key component of the intrinsic pathway of apoptosis. Pro-apoptotic members such as Bax, Bim, and Bak, promote the release of Cytochrome c from the mitochondria, whereas anti-apoptotic members, such as Bcl-2 and Mcl-1, prevent release. The balance of pro-apoptotic and anti-apoptotic Bcl-2 proteins therefore influences the fate of the cell. LTED cells were treated with 75 μM FTS for 0, 4, 8, 16, 24 and 48 h with examination of cytosolic fractions (FIG. 1A).
To ascertain whether Bax was activated in FTS-treated LTED cells, Bcl-2 was immunoprecipitated and then probed for Bim and Bax (See FIG. 1B). Probed cell extracts were probed with the use of an antibody that recognizes only the conformationally altered Bax protein. […] The pro-apoptotic effect of Bim is predominantly through its binding to Bcl-2 that ablates Bcl-2 pro-survival function. As shown in FIG. 1B we found the interaction between Bim and Bcl-2 is increased, whereas the interaction between Bax and Bcl-2 was reduced. As evidence of the exodus of proteins through mitochondrial membrane pores, Cytochrome c and Smac levels in the cytosol were increased at 24 and 48 h, times when Mcl-1 was decreased and Bim, increased (FIG. 1A). […] After showing these effects on MOMP, other key factors involved in apoptosis were examined.
Cells were treated with estradiol for 0, 2, 4, 8, 24 and 48 h and cytosolic fractions prepared. […] Mitochondrial fractions (FIG. 1D, right panel), confirmed the increase in Bim isoforms. […] Because Bim appeared to be critical for estradiol-mediated apoptosis, we carried out a titration of E2, probed for Bim and found it increased over time (See FIG. 1E).
Cells grown in 100 mm dishes were washed with cold PBS and extracted with 1 ml lysis buffer (50 mM Tris-HCl, 150 mM NaCl, 5 mM EDTA, 25 mM NaF, 2 mM NaVO4, 5% glycerol, 1% Triton X-100, 10 μg/ml leupeptin, aprotinin, and pepstatin). Samples were incubated on ice for 30 min, sonicated, and centrifuged at 14,000 rpm for 10 min at 4° C. Supernatants containing 0.5 mg total protein were incubated with antibody against the target protein at 4° C. overnight before addition of 40 μl Protein G beads (Invitrogen) and continued incubation at 4° C. for 2 h. The protein G beads with immunocomplex were centrifuged at 14,000 rpm for 20 sec. The supernatant was carefully removed. The beads were washed twice with 1 ml buffer II (20 mM MOPS, 2 mM EGTA, 5 mM EDTA, 25 mM NaF, 40 mM β-glycerophosphate, 10 mM sodium pyrophosphate, 2 mM NaVO4, 0.5% Triton X-100, 1 mM PMSF, 10 μg/ml leupeptin, aprotinin, and pepstatin) and then boiled in 50 μl 2× Laemmli's buffer. The samples were subjected to electrophoresis in 10% SDS polyacrylamide gel followed by immunoblotting.

[2] = test system: MCF-7-5C cells; experiment: Apoptosis in MCF-7-5C cells, E2 and T-DM-1 alone and in combination; type: cell-based; conditions: agent alone
[3] = test system: LTED (long-term estrogen deprived) cells; experiment: Growth inhibition and drug interaction assay (nuclei count, combination index), LTED; type: cell-based, human
Protocol: When the combination index is equivalent to one (CI=1), this means the two drugs work together in an additive manner. […] The effective dose one (D1) is then plotted on the x-axis and the effective dose two (D2) was plotted on the y-axis. The plotting of the effective dose (ED) can be is done at Fa equals 0.5, 0.75, 0.9 and 0.95. This generates the isobologram.
Cells were plated in six-well plates at a density of 60,000 cells per well. Two days later, the cells were treated in triplicate as described in the descriptions of the figures. At the end of treatment, cells were rinsed twice with saline. Nuclei were prepared by sequential addition of 1 mL HEPES-MgCl2 solution (0.01 mol/L HEPES and 1.5 mmol/L MgCl2) and 0.1 mL ZAP solution [0.13 mol/L ethylhexadecyldimethylammonium bromide in 3% glacial acetic acid (v/v)] and were counted using a Coulter counter (BeckmanCoulter, Inc., Fullerton, Calif.). […] The combination index and values with a mean and standard deviation were calculated using the Monte Carlo simulation using the computer software CalcuSyn from Biosoft (Cambridge, U.K.) [10].
The nature of the interaction between the agents was evaluated by the combination index method of Chou and Talalay [8,9]. […]
Where D is the dose that yields x % growth inhibition and α=0 for mutually exclusive drugs and α=1 for mutually non-exclusive drugs. Synergy as calculated and defined by the CalcuSyn software as a CI<1; additivity is CI=1 and antagonism is CI>1[10].

[4] = test system: LTED cells; experiment: FTS-induced apoptosis and caspase involvement in LTED cells; type: cell-based, human
Protocol: FTS has been reported to invoke cell death through caspase activation in non-breast tissues. To address whether FTS was promoting death of breast cancer cells by activation of caspases LTED cells were treated with either vehicle, FTS, or FTS in the presence of increasing concentrations of the pan-caspase inhibitor z-VAD-fmk (See FIG. 1C top panel). […] Caspase-8 activity does appear to increase; however this is not inhibited by Z-IETD-FMK. See FIG. 2, showing a time course bar graph (2A) and a cell viability versus concentration curve (2B) displaying (FIG. 2A) the effect of FTS and curcumin in combination on wild type MCF-7 cells; and (FIG. 2B) the effect of FTS alone or in combination with curcumin on MCF-7 cell viability.

[5] = test system: MCF-7 cells; experiment: Growth inhibition and drug interaction assay (nuclei count, combination index), MCF-7; type: cell-based; conditions: Homo sapiens, MCF7, FIG. 3, read-out: concentration with 50% inhibitory effect
Excerpt: We examined some of these agents in both the non-adapted cell lines (See FIGS. 4, 6, 8) and adapted cell lines (See FIGS. 5, 7, 9). We treated breast cancer cells with increasing concentrations of the individual drugs followed by testing with their combinations. We determined the number of cells that were killed (fraction affected, fa) and the number of cells that were not affected by the drug (fraction unaffected, fu) (See FIG. 4). Then dose effect curves are transformed into their corresponding linear forms by the median-effect plot where y=log(fa/fu) vs. x=log (D)[8,34]. From the median effect plot the combination index (CI) can be determined. […]
Cells were plated in six-well plates at a density of 60,000 cells per well. […] Nuclei were prepared by sequential addition of 1 mL HEPES-MgCl2 solution (0.01 mol/L HEPES and 1.5 mmol/L MgCl2) and 0.1 mL ZAP solution [0.13 mol/L ethylhexadecyldimethylammonium bromide in 3% glacial acetic acid (v/v)] and were counted using a Coulter counter (BeckmanCoulter, Inc., Fullerton, Calif.). […] The combination index and values with a mean and standard deviation were calculated using the Monte Carlo simulation using the computer software CalcuSyn from Biosoft (Cambridge, U.K.).
The nature of the interaction between the agents was evaluated by the combination index method of Chou and Talalay. […]

[6] = FTS-treated LTED cells, Bcl-2 immunoprecipitation

Row | Molecule | Mcl-1 level ([1]; LTED cells) | Bim level (BimEL, BimL) ([1]; LTED cells) | Survivin level ([1]; LTED cells) | Phospho JNK level ([1]; LTED cells) | Cytochrome c level in the cytosol ([1]; LTED cells) | Smac (Smac/Diablo) level in the cytosol ([1]; LTED cells) | induction of apoptosis [2] | other results
1 | C[C@]12CC[C@@H]3c4ccc(O)cc4CC[C@H]3[C@@H]1CC[C@@H]2O [E2, 17β-Estradiol] | decreased | increased | not | increased | released into the cytosol | released into the cytosol | induced apoptosis | Bok level ([1]; LTED cells, titration of E2): increased in a concentration-dependent manner
2 | CC(C)=CCC/C(C)=C/CC/C(C)=C/CSc1ccccc1C(=O)O [FTS, S-trans, trans-Farnesylthiosalicyclic acid] | decrease | increase | decreased | increased | increased | increased | – | Apoptosis inducing factor (AIF) in the cytosol ([1]; FTS-treated LTED cells): appeared in the cytosol only at 48 h; interaction between Bax and Bcl-2 [1, 6]: reduced; interaction between Bim and Bcl-2 [1, 6]: increased; Bax activation (conformationally altered Bax) ([1]; FTS-treated LTED cells, conformation-specific antibody): underwent a conformational change; Bcl-2 level ([1]; LTED cells, FTS 75 μM 0-48 h, cytosolic fractions): unchanged; XIAP level ([1]; LTED cells, FTS 75 μM or estradiol): did not change; p21 level ([1]; LTED cells, FTS 75 μM, from 4 h to 48 h): steady decrease; cell number ([3]; FTS alone, doses 25, 50, 75 and 100 μM): 14 % of control; caspase-8 changes (death receptor pathway) ([4]; FTS-treated LTED cells): no substantial caspase-8 changes
3 | CC[C@@H](C(=O)[C@@H](C)[C@@H](O)[C@H](C)[C@@H]1O[C@@H]([C@@H](CC)C(=O)O)CC[C@@H]1C)[C@H]1O[C@]2(C=C[C@@H](O)[C@]3(CC[C@@](C)([C@H]4CC[C@](O)(CC)[C@H](C)O4)O3)O2)[C@H](C)C[C@@H]1C [Salinomycin] | – | – | – | – | – | – | – | IC50 [5]: 2 µM
4 | COc1cc(/C=C/C(=O)CC(=O)/C=C/c2ccc(O)c(OC)c2)ccc1O [curcumin] | – | – | – | – | – | – | – | concentration at which initial effects in reducing cell number were observed ([3]; dose response, preliminary studies): 250 nM; concentration showing effects in reducing cell number, later studies ([3]; later studies): 125 nM
5 | COC(=O)C[C@H](NC(=O)[C@H](C)NC(=O)[C@@H](NC(=O)OCc1ccccc1)C(C)C)C(=O)CF [z-VAD-fmk] (Cbz-Val-Ala-Asp(OMe)-CH2F) | – | – | – | – | – | – | – | effect on FTS-induced apoptosis ([4]; LTED cells, FTS plus increasing concentrations of pan-caspase inhibitor): blocked
6 | T-DM1 | – | – | – | – | – | – | induced apoptosis | –
